# Test results reported in US11655246B2, “Aminothiazole compounds as inhibitors of CTPS1” (STEP PHARMA S.A.S., priority 2017, dated 2023).
# Counter-ions that a name gives are not always drawn.
# Biological target: T1, human CTPS1 (Homo sapiens, UniProt P17812)
# T1 construct: purchased Proteros biostructures GmbH
# T1 sequence (P17812 1-591): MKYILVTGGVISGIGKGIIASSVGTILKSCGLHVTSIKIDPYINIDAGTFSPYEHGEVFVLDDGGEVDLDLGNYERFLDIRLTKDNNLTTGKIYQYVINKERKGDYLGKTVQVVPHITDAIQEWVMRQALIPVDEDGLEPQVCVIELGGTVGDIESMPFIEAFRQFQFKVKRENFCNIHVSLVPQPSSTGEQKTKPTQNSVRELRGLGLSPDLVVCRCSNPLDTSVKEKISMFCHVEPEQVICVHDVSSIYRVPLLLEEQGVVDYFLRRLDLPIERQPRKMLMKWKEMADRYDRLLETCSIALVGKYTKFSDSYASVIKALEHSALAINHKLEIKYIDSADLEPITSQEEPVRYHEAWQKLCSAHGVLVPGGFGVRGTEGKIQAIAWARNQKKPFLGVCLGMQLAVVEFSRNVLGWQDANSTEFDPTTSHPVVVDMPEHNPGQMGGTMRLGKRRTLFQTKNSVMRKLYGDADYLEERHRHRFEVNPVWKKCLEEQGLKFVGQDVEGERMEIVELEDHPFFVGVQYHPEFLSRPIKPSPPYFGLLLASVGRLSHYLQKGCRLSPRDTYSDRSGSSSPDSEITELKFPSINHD
# Experiment: Human CTPS1 enzyme inhibition (ADP-Glo Max assay)
# Type: biochemical
# Conditions: Table 17, 25° C., read-out: CTPS1 (Human CTPS1 Enzyme Inhibition data grouped by potency range)
# Method: The enzyme inhibitory activities of compounds invented against the target of interest were determined using the ADP-Glo™ Max assay (Promega, UK). Assays for human CTPS1 were performed in 1× assay buffer containing 50 mM Tris, 10 mM MgCl2, 0.01% Tween-20, pH to 8.0 accordingly. Finally, immediately before use, L-cysteine was added to the 1× assay buffer to a final concentration of 2 mM. All reagents are from Sigma-Aldrich unless specified otherwise.
# 3× human CTPS1 protein was prepared in 1× assay buffer to the final working protein concentration required for the reaction. A 2 uL volume per well of 3× human CTPS1 protein was mixed with 2 uL per well of 3× test compound (compound prepared in 1× assay buffer to an appropriate final 3× compound concentration respective to the concentration response curve designed for the compounds under test) for 10 minutes at 25° C. […] ADP-Glo™ Max reagent was added for 60 minutes (6 uL per well) and subsequently ADP-Glo™ Max development reagent was added for 60 minutes (12 uL per well) prior to signal detection in a microplate reader (EnVision® Multilabel Reader, Perkin Elmer). Following each reagent addition over the course of the assay, assay plates were pulse centrifuged for 30 seconds at 500 rpm.
# In all cases, the enzyme converts ATP to ADP and the ADP-Glo™ Max reagent subsequently depletes any remaining endogenous ATP in the reaction system. The ADP-Glo™ Max detection reagent converts the ADP that has been enzymatically produced back into ATP and using ATP as a substrate together with luciferin for the enzyme luciferase, light is generated which produces a detectable luminescence. […] The percentage inhibition produced by each concentration of compound was calculated using the equation shown below: […]
row,IC50 [nM],SMILES
1,< 100,"CCC(C(=O)Nc1ccc(-c2cccnc2)cc1)c1csc(NS(=O)(=O)C2CC2)n1 (racemic) [T5, 2-(2-(cyclopropanesulfonamido)thiazol-4-yl)-N-(4-(pyridin-3-yl)phenyl)butanamide]"
2,< 100,"CCC(C(=O)Nc1ccc(-c2cncc(Cl)c2)cc1)c1csc(NS(=O)(=O)C2CC2)n1 (racemic) [T8, N-(4-(5-chloropyridin-3-yl)phenyl)-2-(2-(cyclopropanesulfonamido)thiazol-4-yl)butanamide]"
3,100 to 1000,"CC(C)C(C(=O)Nc1ccc(-c2cccnc2)cc1)c1csc(NS(=O)(=O)C2CC2)n1 (racemic) [T12, 2-(2-(cyclopropanesulfonamido)thiazol-4-yl)-3-methyl-N-(4-(pyridin-3-yl)phenyl)butanamide]"
4,100 to 1000,"CCC(C(=O)Nc1ccc(-c2cccnc2)cc1)c1csc(NS(=O)(=O)C2CC2)n1 (single isomer, unassigned) [T6, 2-(2-(cyclopropanesulfonamido)thiazol-4-yl)-N-(4-(pyridin-3-yl)phenyl)butanamide.HCl]"
5,< 100,"CCC(C(=O)Nc1ccc(-c2cccnc2)cc1)c1csc(NS(=O)(=O)C2CC2)n1 (single isomer, unassigned) [T7, 2-(2-(cyclopropanesulfonamido)thiazol-4-yl)-N-(4-(pyridin-3-yl)phenyl)butanamide.HCl]"
6,< 100,"CCC(C(=O)Nc1ccc(-c2cncc(Cl)c2)cc1)c1csc(NS(=O)(=O)C2CC2)n1 (single isomer, unassigned) [T9, N-(4-(5-chloropyridin-3-yl)phenyl)-2-(2-(cyclopropanesulfonamido)thiazol-4-yl)butanamide.HCl]"
7,< 100,"CCC(C(=O)Nc1ccc(-c2cncc(Cl)c2)cc1)c1csc(NS(=O)(=O)C2CC2)n1 (single isomer, unassigned) [T10, N-(4-(5-chloropyridin-3-yl)phenyl)-2-(2-(cyclopropanesulfonamido)thiazol-4-yl)butanamide.HCl]"
8,100 to 1000,"CC(C)C(C(=O)Nc1ccc(-c2cccnc2)cc1)c1csc(NS(=O)(=O)C2CC2)n1 (single isomer, unassigned) [T13, 2-(2-(cyclopropanesulfonamido)thiazol-4-yl)-3-methyl-N-(4-(pyridin-3-yl)phenyl)butanamide.HCl]"
9,100 to 1000,"CC(C)C(C(=O)Nc1ccc(-c2cccnc2)cc1)c1csc(NS(=O)(=O)C2CC2)n1 (single isomer, unassigned) [T14, 2-(2-(cyclopropanesulfonamido)thiazol-4-yl)-3-methyl-N-(4-(pyridin-3-yl)phenyl)butanamide.HCl]"
10,< 100,"CCC(C(=O)Nc1ccc(-c2cncc(F)c2)cc1)c1csc(NS(=O)(=O)C2CC2)n1 (single isomer, unassigned) [T72]"
11,< 100,"CCC(C(=O)Nc1ccc(-c2cncc(C(F)(F)F)n2)cc1)c1csc(NS(=O)(=O)C2CC2)n1 (single isomer, unassigned) [T106]"
12,< 100,"COc1cncc(-c2ccc(NC(=O)C(OC)c3csc(NS(=O)(=O)C4CC4)n3)cc2)n1 (single isomer, unassigned) [T107]"
13,< 100,"CCOc1cncc(-c2ccc(NC(=O)C(CC)c3csc(NS(=O)(=O)C4CC4)n3)cc2)n1 (single isomer, unassigned) [T204]"
14,100 to 1000,"CCC(C(=O)Nc1ccc(-c2cncc(OCC(F)(F)F)n2)cc1)c1csc(NS(=O)(=O)C2CC2)n1 (single isomer, unassigned) [T222]"
15,< 100,"CCC(C(=O)Nc1ccc(-c2cncc(OCC(F)(F)F)n2)cc1)c1csc(NS(=O)(=O)C2CC2)n1 (single isomer, unassigned) [T223]"
16,1000 to 10000,"CS(=O)(=O)Nc1nc(CC(=O)Nc2ccc(-c3ccccc3)cc2)cs1 [T1, N-([1,1′-biphenyl]-4-yl)-2-(2-(methylsulfonamido)thiazol-4-yl)acetamide]"
17,100 to 1000,"CCC(CC)(C(=O)Nc1ccc(-c2cnccn2)cn1)c1csc(NS(=O)(=O)C2CC2)n1 [T3, 2-(2-(cyclopropanesulfonamido)thiazol-4-yl)-2-ethyl-N-(5-(pyrazin-2-yl)pyridin-2-yl)butanamide]"
18,1000 to 10000,"CC(C)(C(=O)Nc1ccc(-c2ncccn2)cc1)c1csc(NS(=O)(=O)C2CC2)n1 [T4, 2-(2-(cyclopropanesulfonamido)thiazol-4-yl)-2-methyl-N-(4-(pyrimidin-2-yl)phenyl)propanamide]"

# Same assay, conditions: Table 18, additional potency data, 25° C., read-out: CTPS1 (Human CTPS1 Enzyme Inhibition data grouped by potency range)
row,IC50 [nM],SMILES
1,< 100,"CCOc1cncc(-c2ccc(NC(=O)C(OC)c3csc(NS(=O)(=O)C4CC4)n3)cc2)n1 (racemic) [T410, 2-(2-(cyclopropanesulfonamido)thiazol-4-yl)-N-(4-(6-ethoxypyrazin-2-yl)phenyl)-2-methoxyacetamide]"
2,< 100,"CCOc1cncc(-c2ccc(NC(=O)C(OC)c3csc(NS(=O)(=O)C4CC4)n3)cc2)n1 (single isomer, unassigned) [T330, 2-(2-(cyclopropanesulfonamido)thiazol-4-yl)-N-(4-(6-ethoxypyrazin-2-yl)phenyl)-2-methoxyacetamide]"
3,< 100,"CCOc1cncc(-c2ccc(NC(=O)C(OC)c3csc(NS(=O)(=O)C4CC4)n3)cc2)n1 (single isomer, unassigned) [T331, 2-(2-(cyclopropanesulfonamido)thiazol-4-yl)-N-(4-(6-ethoxypyrazin-2-yl)phenyl)-2-methoxyacetamide]"
4,< 100,"CCOc1cncc(-c2ccc(NC(=O)C(CC)c3csc(NS(=O)(=O)C4CC4)n3)c(F)c2)n1 (single isomer, unassigned) [T412, 2-(2-(cyclopropanesulfonamido)thiazol-4-yl)-N-(4-(6-ethoxypyrazin-2-yl)-2-fluorophenyl)butanamide]"
5,< 100,"CCOc1cncc(-c2ccc(NC(=O)C(CC)c3csc(NS(=O)(=O)C4CC4)n3)c(F)c2)n1 (single isomer, unassigned) [T413, 2-(2-(cyclopropanesulfonamido)thiazol-4-yl)-N-(4-(6-ethoxypyrazin-2-yl)-2-fluorophenyl)butanamide]"
6,< 100,"CCC(C(=O)Nc1ccc(-c2cncc(C(F)(F)F)n2)cn1)c1csc(NS(=O)(=O)C2CC2)n1 (single isomer, unassigned) [T414, 2-(2-(cyclopropanesulfonamido)thiazol-4-yl)-N-(5-(6-(trifluoromethyl)pyrazin-2-yl)pyridin-2-yl)butanamide]"
7,100 to 1000,"CCC(C(=O)Nc1ccc(-c2cncc(C(F)(F)F)c2)cc1F)c1csc(NS(=O)(=O)C2CC2)n1 (single isomer, unassigned) [T415, 2-(2-(cyclopropanesulfonamido)thiazol-4-yl)-N-(2-fluoro-4-(5-(trifluoromethyl)pyridin-3-yl)phenyl)butanamide]"
8,< 100,"CCC(C(=O)Nc1ccc(-c2cncc(C(F)(F)F)c2)cc1F)c1csc(NS(=O)(=O)C2CC2)n1 (single isomer, unassigned) [T416, 2-(2-(cyclopropanesulfonamido)thiazol-4-yl)-N-(2-fluoro-4-(5-(trifluoromethyl)pyridin-3-yl)phenyl)butanamide]"
9,< 100,"CCOc1cncc(-c2cnc(NC(=O)C(CC)c3csc(NS(=O)(=O)C4CC4)n3)c(F)c2)n1 (single isomer, unassigned) [T456]"
10,< 100,"CCC(C(=O)Nc1ccc(-c2cncc(C(F)(F)F)n2)cc1F)c1csc(NS(=O)(=O)C2CC2)n1 (single isomer, unassigned) [T458]"
11,< 100,"COC(C(=O)Nc1ccc(-c2cncc(C(F)(F)F)n2)cc1F)c1csc(NS(=O)(=O)C2CC2)n1 (single isomer, unassigned) [T459]"
